According to patent publication US20230293458A1, “MULTIBIOTIC AGENTS AND METHODS OF USING THE SAME” (Flagship Pioneering Innovations V, Inc., priority 2017, published 2023):

Assays:
Assay type in all cases: in vitro ADME
[1] = Stability of multibiotic agents in Simulated Gastric Fluid (SGF); details: simulated gastric fluid pH 1.6 with pepsin, 37° C., 1 μM
In short: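 Compounds were incubated at 1 μM final at 37 °C in simulated gastric fluid containing NaCl, pH 1.6, with FaSSIF powder and 0.1 mg/mL pepsin. Aliquots were taken at T0 and at regular intervals and quenched with acetonitrile. Degradation rates were determined by LC/MS.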

[2] = Stability of multibiotic agents in Simulated Intestinal Fluid (SIF); details: simulated intestinal fluid pH 6.7 with pancreatin, 37° C., 1 μM
In short: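 Compounds at 1 μM final (from 1 mM DMSO stock) incubated at 37 °C with agitation in fresh SIF (FaSSIF plus pancreatin in pH 6.7 phosphate buffer). Aliquots taken at T0 and regular intervals, quenched with 1 volume acetonitrile. Degradation rate determined by LC/MS.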

[3] = Assay 4. Fecal Incubation Stability; details: fecal slurry in YCFA media, anaerobic, 1 or 10 μM
Method: Assay 4. Fecal Incubation Stability. This assay can be used to assess the stability of a multibiotic agent in a large intestine. All experiments performed in an anaerobic chamber containing 90% nitrogen, 5% hydrogen and 5% carbon dioxide. Fecal matter in a slurry (15% (w/v)) was added to 96 well plates containing YCFA media or other suitable media (1.6 mL). Compounds were added to each individual well to reach a final analyte concentration of 1 or 10 μM, and the material was mixed by pipetting. At predetermined timepoints a sample was removed, quenched with acetonitrile, and analyzed by LC/MS.

Structure (SMILES): CCCC(=O)Oc1cc(OC(=O)CCC)c2c(c1)O[C@H](c1cc(OC(=O)CCC)c(OC(=O)CCC)c(OC(=O)CCC)c1)[C@H](OC(=O)c1cc(OC(=O)CCC)c(OC(=O)CCC)c(OC(=O)CCC)c1)C2 [Example 15, [(2R,3R)-5,7-di(butanoyloxy)-2-[3,4,5-tri(butanoyloxy)phenyl]chroman-3-yl] 3,4,5-tri(butanoyloxy)benzoate]
- Assay 2 (SGF) (% Remaining @ 4 hours) [1]: C (>75% of the tested compound remaining)
- Assay 3 (SIF) (% @ Remaining 4 hours) [2]: C (>75% of the tested compound remaining)
- Assay 4 (% Remaining at 24 h) [3]: C (>75% of the tested compound remaining)

Structure (SMILES): CCCC(=O)O[C@@H]1[C@@H](OC(=O)CCC)[C@@H](Oc2ccc(N)cc2C(=O)O)OC[C@H]1OC(=O)CCC [Example 20, 5-amino-2-[(2R,3R,4S,5R)-3,4,5-tri(butanoyloxy)tetrahydropyran-2-yl]oxy-benzoic acid]
- Assay 2 (SGF) (% Remaining @ 4 hours) [1]: C (>75% of the tested compound remaining)
- Assay 3 (SIF) (% @ Remaining 4 hours) [2]: C (>75% of the tested compound remaining)
- Assay 4 (% Remaining at 24 h) [3]: A (<25% of the tested compound remaining)

Structure (SMILES): CCCC(=O)O[C@H](C)CC(=O)O[C@H]1CO[C@H]2[C@@H]1OC[C@H]2OC(=O)C[C@@H](C)OC(=O)CCC [Example 79, [(3S,3aR,6R,6aR)-6-[(3R)-3-butanoyloxybutanoyl]oxy-2,3,3a,5,6,6a-hexahydrofuro[3,2-b]furan-3-yl] (3R)-3-butanoyloxybutanoate]
- Assay 2 (SGF) (% Remaining @ 4 hours) [1]: C (>75% of the tested compound remaining)
- Assay 3 (SIF) (% @ Remaining 4 hours) [2]: B (25-75% of the tested compound remaining)
- Assay 4 (% Remaining at 24 h) [3]: B (25-75% of the tested compound remaining)
